# Like-named read-outs stand apart in the source and are kept apart here.
# Key:
# cyclo-oxygenase = biological target: T1, cyclo-oxygenase (Ovis aries, UniProt P05979); test: cyclo-oxygenase assay (oxygen consumption, Clark oxygen electrode); assay type: biochemical, sheep
# T1 construct: microsomal enzyme fraction, obtained from a 220,000 x g precipitate of a homogenate of sheep vesicular glands; from tissue; host or cells: sheep vesicular glands (lyophilized microsomal fraction, 220,000 x g precipitate)
# T1 sequence (P05979 25-600): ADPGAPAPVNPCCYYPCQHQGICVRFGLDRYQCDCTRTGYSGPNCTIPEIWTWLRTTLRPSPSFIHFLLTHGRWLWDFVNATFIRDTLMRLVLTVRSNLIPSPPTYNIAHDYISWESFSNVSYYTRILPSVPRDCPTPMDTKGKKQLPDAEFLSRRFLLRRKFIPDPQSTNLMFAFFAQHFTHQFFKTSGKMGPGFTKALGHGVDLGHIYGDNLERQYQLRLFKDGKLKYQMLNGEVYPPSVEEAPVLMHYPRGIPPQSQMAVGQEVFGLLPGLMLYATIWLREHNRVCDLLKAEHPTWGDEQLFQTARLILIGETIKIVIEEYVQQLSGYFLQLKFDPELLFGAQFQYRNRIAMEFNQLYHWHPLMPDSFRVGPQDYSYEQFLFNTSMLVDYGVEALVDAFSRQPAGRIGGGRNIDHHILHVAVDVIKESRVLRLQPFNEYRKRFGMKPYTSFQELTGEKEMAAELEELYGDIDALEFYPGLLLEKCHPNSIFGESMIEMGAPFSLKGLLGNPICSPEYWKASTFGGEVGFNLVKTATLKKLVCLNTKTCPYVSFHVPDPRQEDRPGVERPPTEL
# Description: In vitro experiments were carried out to determine the I50 value of various cyclo-oxygenase inhibitors. […] These experiments were carried out as described in the general method given below, keeping the enzyme and substrate concentrations constant and using increasing inhibitor concentrations. Determinations at each inhibitor concentrations were carried out in duplicate.
# The cyclo-oxygenase assay was carried out according to the method described by van der Ouderaa et al., "Methods in Enzymology" 86, page 60-68 (Academic Press Inc., 1982).
# 0.1M Tris-HCl (pH 8.0) kept at 25° C. and continuously aerated by bubbling air through the solution.
# 20 mg/ml in toluene kept under nitrogen at -20° C.
# 0.5 ml of stock solution was taken and the toluene removed under a stream of nitrogen. The substrate was suspended in 10 ml of incubation buffer, freshly prepared each day and kept at room temperature.
# 500 mg of dry lyophilized microsomal enzyme fraction, obtained from a 220,000 x g precipitate of a homogenate of sheep vesicular glands, was dispersed in 10 ml of incubation buffer for 5 min. using an Ultra Turrax homogeniser. The suspension was kept in ice throughout the experiment and shaken well before each sample was withdrawn.
# 0.23 mM in distilled water freshly prepared each day and kept on ice.
# 0.1 mM made up in incubation buffer, freshly prepared each day and kept on ice.
# The cyclo-oxygenase activity was measured at 25° C. by monitoring the oxygen consumption as a result of cyclo-oxygenation of the substrate using a Clark oxygen electrode.
# A typical experimental run was carried out as follows.
# The mixture was then stirred for 5 min. to allow temperature equilibrium and to achieve a steady baseline on the chart recorder monitoring the dissolved oxygen concentration. Substrate solution (100 μl) was quickly injected into the cell to start the reaction and the oxygen consumption was typically monitored for 5 min. following addition of substrate.
# The cyclo-oxygenase activity of the sample was calculated from the oxygen consumption curve assuming that maximum deflection of the recorder corresponds to 0.26 mM dissolved oxygen in the buffer and that 2 moles of oxygen are consumed per mole of substrate. The linear part of the sigmoid curve of oxygen consumption was used for initial-rate calculations.
# The experiments were standardised by measuring the activity of the enzyme stock solution before and after each set of kinetic experiments and normalizing results to the mean activity.
# Triclosan was dissolved in ethanol; AN-10 and APCF3-8 were dissolved in polyethyleneglycol (MW 400) and sodium salicylate was used as an aqueous solution. The concentration of the inhibitor solutions were adjusted so that only 10 μl of the inhibitor solution was added.
# Neonatal mouse calvaria [1] = test: Bone loss in vitro: calcium release from calvaria stimulated with PGE2; assay type: cell-based; details: Example 2
# Description: (§1) The experimental method used is fully described in Meghi,S et al. Brit. J. Cancer (1988) 58, pp 17-21. Neonatal mouse calvaria were isolated with minimum trauma and maintained in a nutrient medium appropriate for cell culture (DMEM+15% horse serum) at […] in 100% humidity, the medium also containing the materials under test. The pH was maintained in an atmosphere of 5% CO2. After 24 h the medium was discarded, the calvaria were divided into control and test groups, and the medium was replaced with fresh medium containing the materials under test. Prostaglandin E2 (PGE2, 10^-6 M) was added with or without Triclosan as appropriate to stimulate the release of calcium ions (i.e. bone resorption) from the calvaria. After two days further culture in the test media the release of calcium into the medium from the calvaria was determined by atomic absorption spectroscopy. Calcium release is a measure of bone resorption (i.e. degradation of bone) regulated by the specialised cells (osteoblasts and osteoclasts) on the bone surface. Net calcium release was obtained by subtracting the basal medium calcium level.
# [2] = system: Actinobacillus actinomycetemcomitans; test: MIC-value of Triclosan for periodontal micro organisms; assay type: cell-based
# Neonatal mouse calvaria [3] = test: Bone loss in vitro: calcium release from calvaria stimulated with thrombin; assay type: cell-based
# Description: as §1
# The test method of Example 2 was repeated, using thrombin, however, as bone loss stimulator, and using indomethacin as a cyclo-oxygenase inhibitor as control.
# The procedure of Example 3 was repeated, also using zinc citrate as addition.
# [4] = Retention by gingival tissue following topical application; details: in vitro and in vivo
# [5] = sheep vesicular gland microsomal enzyme, 8,11,14-eicosatrienoic acid substrate, 25° C., pH 8.0, read-out: I50 (concentration of inhibitor which gives 50% inhibition of cyclo-oxygenase activity)
molecule,measurement,setting,value
"CCCCCCCCCC(=O)c1ccc(O)c(C(=O)Nc2ccc([N+](=O)[O-])cc2)c1 [AN-10, 5-n-decanoyl-4'nitrosalicylanilide]",IC50,cyclo-oxygenase; [5],180 µM
"CCCCCCCC(=O)c1ccc(O)c(C(=O)Nc2cccc(C(F)(F)F)c2)c1 [APCF3-8, 5-n-octanoyl-'trifluoromethylphenyl-salicylanilide]",IC50,cyclo-oxygenase; [5],240 µM
"CCCCC[C@H](O)/C=C/[C@H]1[C@H](O)CC(=O)[C@@H]1C/C=C\CCCC(=O)O [PGE2, Prostaglandin E2]",Net Calcium Release,"Neonatal mouse calvaria [1]; PGE2 10^-6 M alone (positive control), two days culture",3.5 mg/dL
"Oc1cc(Cl)ccc1Oc1ccc(Cl)cc1Cl [Triclosan, 2',4,4'-trichloro-2-hydroxy-diphenyl-ether]",IC50,cyclo-oxygenase,155 µM
same,anti-cyclo-oxygenase activity,cyclo-oxygenase; in words,considerable anti-cyclo-oxygenase activity
same,anti-inflammatory potency compared with the preferred substituted salicylamides,"cyclo-oxygenase; in words, salicylamides of U.S. Pat. No. 4,742,083",much more potent anti-inflammatory agent than the preferred substituted salicylamides
same,MIC-value,[2],0.0005%
same,Net Calcium Release,Neonatal mouse calvaria [1]; + PGE2 (10^-6 M) and 1.10^-5 Triclosan,1.4 mg/dL
same,Net Calcium Release,Neonatal mouse calvaria [1]; + PGE2 (10^-6 M) and 2.5.10^-5 M Triclosan,-0.1 mg/dL
same,Net Calcium Release,"Neonatal mouse calvaria [3]; Example 3, + thrombin and 1.10^-5 M Triclosan",0.2 mg/dL
same,Net Calcium Release,"Neonatal mouse calvaria [3]; Example 3, + thrombin and 5.10^-5 M Triclosan",-0.6 mg/dL
same,Net Calcium Release,"Neonatal mouse calvaria [3]; Example 4, + thrombin and 5.10^-6 M Triclosan",0.75 mg/dL
same,retention by gingival tissue,[4],retained by gingival tissue both in vitro and in vivo
COc1ccc2c(c1)c(CC(=O)O)c(C)n2C(=O)c1ccc(Cl)cc1 [indomethacin],Net Calcium Release,"Neonatal mouse calvaria [3]; Example 3, + thrombin and 10^-6 M indomethacin",0.4 mg/dL
same,Net Calcium Release,"Neonatal mouse calvaria [3]; Example 4, + thrombin and 10^-6 M indomethacin",0.0 mg/dL
O=C([O-])CC(O)(CC(=O)[O-])C(=O)[O-].O=C([O-])CC(O)(CC(=O)[O-])C(=O)[O-].[Zn+2].[Zn+2].[Zn+2] [zinc citrate],Net Calcium Release,"Neonatal mouse calvaria [3]; Example 4, + thrombin and 1.10^-4 M zinc citrate",1.3 mg/dL
same,Net Calcium Release,"Neonatal mouse calvaria [3]; Example 4, + thrombin and 2.10^-4 M zinc citrate",0.8 mg/dL
same,Net Calcium Release,"Neonatal mouse calvaria [3]; Example 4, + thrombin and 5.10^-5 M zinc citrate",1.4 mg/dL
thrombin,Net Calcium Release,"Neonatal mouse calvaria [3]; Example 3, + thrombin alone",3.9 mg/dL
same,Net Calcium Release,"Neonatal mouse calvaria [3]; Example 4, thrombin alone",2.4 mg/dL

# From patent US5240696A, “Treatment of periodontitis” (Chesebrough-Pond's USA Co., Division of Conopco, Inc., priority 1991, dated 1993)
